Where two headings read alike, the source gives them in different places.
Assays:
[1] = system: Metrazole Spasm; assay: Metrazole Spasm (mice), antispasm activity; type: in vivo, CFLP (LATI) mice; details: for Antispasm activity metrazole b: b) tonic extensoric spasm, 30 mg/kg orally
Experimental: (§1) For the pharmacological tests CFLP (LATI) mice of both sexes, weighing 18 to 22 g each and male Han. Wistar (LATI) rats weighing 160 to 180 g each were used. The test materials were administered orally, in 30 mg/kg doses, in the form of a suspension containing 5% of Tween 80, one hour before the tests.

[2] = system: Hyperthermia; assay: Antipyretic Activity (rats), Brewer's yeast hyperthermia; type: in vivo, male Han. Wistar (LATI) rats; details: 30 mg/kg orally, 4 h after yeast, % of animals at least one centigrade lower than control
Experimental: as §1
5. Antipyretic Activity (rats)
Hyperthermia is induced in rats with Brewer's yeast suspension (0.5% of Brewer's yeast, 1% of arabic gum in a volume of 0.3 ml, s.c.). The animals are treated with the test materials 4 hours later, and the tracheal temperature of the animals is registered with an ELAB thermometer (typ. TE-3) for 4 hours.

[3] = system: Tetrabenazine Catalepsy; assay: Inhibition of Tetrabenazine Catalepsy (rats); type: in vivo, male Han. Wistar (LATI) rats; details: for Antitetrabenazine activity (%): rats, 30 mg/kg intraperitoneally, one hour before tetrabenazine
Experimental: as §1
3. Inhibition of Tetrabenazine Catalepsy
The test was carried out on male rats each weighing 160 to 180 g. The test materials were administered intraperitoneally, in a dose of 30 mg/kg, one hour before tetrabenazine administration.

[4] = system: writhing syndrom; assay: Analgesic Activity (mice), acetic acid writhing syndrom; type: in vivo, CFLP (LATI) mice; details: for ED50: Mus musculus, po, read-out: Analgesic activity, ED50
Experimental: For the pharmacological tests CFLP (LATI) mice of both sexes, weighing 18 to 22 g each and male Han. Wistar (LATI) rats weighing 160 to 180 g each were used. The test materials were administered orally, in 30 mg/kg doses, in the form of a suspension containing 5% of Tween 80, one hour before the tests. 4. Analgesic Activity (mice) One hour after pretreatment, mice were administered 0.4 ml of a 0.6% acetic acid solution intraperitoneally, as a pain stimulus. The frequency of writhing syndrom is registered for 30 minutes.

[5] = mice, pentylenetetrazole 125 mg/kg s.c.

| Structure (SMILES) | Antispasm activity metrazole b [1, 5] | anticonvulsive effect (in words) ([1]; test not given) | Antipyretic activity (%) [2] [%] | Antitetrabenazine activity (%) [3] [%] | antidepressive effect (in words) ([3]; test not given) | ED50 ([4]; value marked ^x = ED50, mice, orally, 0.6% acetic acid i.p. writhing) [mg/kg] | analgesic activity (in words) ([4]; acetic acid writhing, mice) | analgesic activity relative to reference compound (Na-salicylate) ([4]; acetic acid writhing, mice) | ED50 ([1]; Mus musculus, po; value marked ^x = ED50; b) tonic extensoric spasm, mice, orally, pentylenetetrazole 125 mg/kg s.c.) [mg/kg] | Analgesic activity (%) ([4]; mice, 30 mg/kg orally, 0.4 ml 0.6% acetic acid i.p., 30 minutes, vs control) | influence on writhing syndrom induced with acetic acid (in words) ([4]; 30 mg/kg dose, mice) | ED50 [4] [mg/kg] |
| --- | --- | --- | --- | --- | --- | --- | --- | --- | --- | --- | --- | --- |
| COc1cc2c(cc1OC)C(C(CO)CO)N(C)CC2.Cl (centres unmarked) [Compound A, 1-[bis(hydroxymethyl)-methyl]-2-methyl-6,7-dimethoxy-1,2,3,4-tetrahydroisoquinoline hydrochloride] | 20.0 | remarkable anticonvulsive and antidepressive effects | 20.0 | 20.0 | remarkable anticonvulsive and antidepressive effects | 28 | valuable analgesic activity | four times more active than the reference compound | – | – | – | – |
| CCOc1cc2c(cc1OCC)C(C(CO)CO)N(CC(O)CC)CC2.Cl (stereo not drawn) [Compound B, 1-[bis-(Hydroxymethyl)-methyl]-2-(β-hydroxybutyl)6,7-diethoxy-1,2,3,4-tetrahydroisoquinoline hydrochloride] | – | – | 20.0 | 20.0 | – | – | somewhat lower analgesic activity than the above 2-methyl-compound | – | 20 | 40.0 | – | – |
| O=C(O)c1ccccc1O [Na--salicylate, Na-salicylate, reference compound] | 20.0 | – | 40.0 | – | – | – | – | – | – | – | practically not influenced | 113 |
